We go through 4 molecules from patent US9738677B2, “Amphotericin B derivative with reduced toxicity” (priority 2014, dated 2017).

For one data set, the system named is renal cells. The format is cell-based, human. As to the method:
Cells were imaged using an AMG (Bothell, Wash.) EVOS fl Microscope. Images were taken using transmitted light at 10× objective.
(18) Due to the limited solubility of AmB and its derivatives in the renal cell media, 80 μM is the highest concentration we were able to study. At higher concentrations, the aggregate blocks the light path of the plate reader, giving false high absorbance readings.

The test system of data set [1] is primary human renal proximal tubule epithelial cells. As to the kind of experiment: WST-8 cell proliferation assay (MTC). The format is cell-based. As to the method:
WST-8 Cell Proliferation Assays
Primary human renal proximal tubule epithelial cells (RPTECs) were purchased from ATCC (Manassas, Va.) and immediately cultured upon receipt. Complete growth media was prepared using renal epithelial cell basal medium (ATCC, PCS-400-030), renal epithelial cell growth kit (ATCC, PCS-400-040), and penicillin-streptomycin (10 units/mL and 10 μg/mL). Complete media was stored at 4° C. in the dark and used within 28 days. Primary RPTECs were grown in CO2 incubator at 37° C. with an atmosphere of 95% air/5% CO2.
WST-8 cell proliferation assay kit (Ser. No. 10/010,199) was purchased from Cayman Chemical Company (Ann Arbor, Mich.) and stored at −20° C. and used within 6 months of receipt. WST-8 reagent and electron mediator solution were thawed and mixed to prepare the WST-8 reagent solution. The solution was stored at −20° C. and used within one week.
A suspension of primary RPTECs in complete growth media was brought to a concentration of 1×10^5 cells/mL. A 96-well plate was seeded with 99 μL of the cell suspension and incubated at 37° C. with an atmosphere of 95% air/5% CO2 for 3 hours. Positive and negative controls were prepared by seeding with 100 μL of the cell suspension or 100 μL of the complete media. Compounds were prepared as 5 mM (AmB), 20 mM (C2′deOAmB), and 50 mM (C2′epiAmB) stock solutions in DMSO and serially diluted to the following concentrations with DMSO: 50000, 40000, 30000, 20000, 10000, 8000, 6000, 4000, 3000, 2000, 1500, 1000, 800, 600, 400, 300, 200, 100, 50, 25, 10, 5, 2.5, 1, 0.5, 0.25, and 0.1 μM. 1 μL aliquots of each solution were added to the 96-well plate in triplicate, with each column representing a different concentration of the test compound. The 96-well plate was incubated at 37° C. with an atmosphere of 95% air/5% CO2 for 24 hours. […] Following incubation, the 96-well plate was mixed in a shaking incubator at 200 rpm for 1 minute and absorbances were read at 450 nm using a Biotek H1 Synergy Hybrid Reader (Wanooski, Vt.). […]

Data set [2] is described as follows: ITC sterol binding, POPC LUVs containing 10% cholesterol. Conditions: within the limits of the binding assay. As to the method: (§1) Isothermal Titration calorimetry (ITC)
(§2) In an optimized isothermal titration calorimetry (ITC)-based assay, an aqueous solution of AmB was titrated with a suspension of large unilamellar vesicles (LUVs) comprised of only 1-palmitoyl-2-oleoyl-sn-glycero-3-phosphocholine (POPC), and the net exotherm was recorded. The titration was repeated using POPC LUVs containing 10% ergosterol. […] The titration was repeated using C2′epiAmB. […] The ITC assay was also conducted with cholesterol in place of ergosterol.
(§3) Experiments were performed using a NanoITC isothermal titration calorimeter (TA Instruments, Wilmington, Del.). Solutions of the compounds to be tested were prepared by diluting a 60.0 mM stock solution of the compound in DMSO to 600 μM with K buffer (5.0 mM HEPES/KHEPES, pH=7.4). The final DMSO concentration in the solution was 1% v/v. Large unilamellar vesicles comprised of only 1-palmitoyl-2-oleoyl-sn-glycero-3-phosphocholine (POPC LUVs) were prepared and phosphorus and ergosterol content was quantified as described below. The LUV solutions were diluted with buffer and DMSO to give a final phospholipid concentration of 12.0 mM in a 1% DMSO/K buffer solution. Immediately prior to use, all solutions were incubated at 37° C. for 30 minutes and degassed under vacuum at 37° C. for 10 minutes. The reference cell of the instrument (volume=0.190 mL) was filled with a solution of 1% v/v DMSO/K buffer.
Palmitoyl oleoyl phosphatidylcholine (POPC) was obtained as a 20 mg/mL solution in CHCl3 from Avanti Polar Lipids (Alabaster, Ala.) and was stored at −20° C. under an atmosphere of dry argon and used within 1 month. A 4 mg/mL solution of ergosterol in CHCl3 was prepared monthly and stored at 4° C. under an atmosphere of dry argon. […]
NanoAnalyze software (TA Instruments) was used for baseline determination and integration of the injection heats, and Microsoft Excel was used for subtraction of dilution heats and the calculation of overall heat evolved. […] By this method, the overall heat evolved during the experiment was calculated using the following formula: […]

Data set [3] is described as follows: ITC sterol binding, POPC LUVs containing 10% ergosterol. The conditions noted are these: net exotherm vs sterol-free LUVs. How it is done:
as §1, §2, §3
Palmitoyl oleoyl phosphatidylcholine (POPC) was obtained as a 20 mg/mL solution in CHCl3 from Avanti Polar Lipids (Alabaster, Ala.) and was stored at −20° C. under an atmosphere of dry argon and used within 1 month. […]
Ergosterol content was determined spectrophotometrically. […] The solutions were then analyzed by UV/Vis spectroscopy and the concentration of ergosterol in solution was determined by the extinction coefficient of 10400 L mol^−1 cm^−1 at the UVmax of 282 nm and was compared to the concentration of phosphorus to determine the percent sterol content. The extinction coefficient was determined independently in the above ternary solvent system. […]

For the next data set, the system named is healthy mice. The experiment in a line: Acute toxicity, single intravenous administration, lethality. The format is in vivo, mouse. Conditions: healthy mice, single intravenous 4 mg/kg. As to the method:
FIG. 8 is a graph depicting lethality in healthy mice resulting from single intravenous administrations in the doses indicated of AmB or C2′epiAmB.
In a separate experiment, acute toxicity was determined by single intravenous administration of AmB or C2′epiAmB to healthy mice, followed by monitoring for lethality.

A further data set has as its system human red blood cells. As to the kind of experiment: Minimum hemolysis concentration (MHC) assay. The format is cell-based. Conditions: concentration causing 90% hemolysis of human red blood cells, 2 hours, 37° C.
The test system of data set [4] is yeast. The conditions noted are these: reported by Carreira and coworkers; cited from earlier work.
For data set [5] the following is noted: Chol-containing POPC liposomes, 1 μM; cited from earlier work.
The subject of data set [6] is yeast. The conditions noted are these: previously found; cited from earlier work.
The conditions of data set [7]: previously found; cited from earlier work.
For data set [8] the following is noted: previously found; cited from earlier work. The source holds these as a separate data set.

Description for human red blood cells: The protocol for the hemolysis assay was adapted from the report of Paquet and coworkers. […] Whole human blood (sodium heparin) was purchased from Bioreclamation LLC (Westbury, N.Y.) and stored at 4° C. and used within two days of receipt. To a 2.0 mL Eppendorf tube, 1 mL of whole human blood was added and centrifuged at 10,000 g for 2 minutes. The supernatant was removed and the erythrocyte pellet was washed with 1 mL of sterile saline and centrifuged at 10,000 g for 2 minutes. The saline wash was repeated for a total of three washes. The erythrocyte pellet was suspended in 1 mL of RBC buffer (10 mM NaH2PO4, 150 mM NaCl, 1 mM MgCl2, pH 7.4) to form the erythrocyte stock suspension.
Positive and negative controls were prepared by adding 1 μL of DMSO to MilliQ water or RBC buffer, respectively to 0.2 mL PCR tube. To each PCR tube, 0.63 μL of the erythrocyte stock suspension was added and mixed by inversion. The samples were incubated at 37° C. for 2 hours. The samples were mixed by inversion and centrifuged at 10,000 g for 2 minutes. 15 μL of the supernatant from each sample was added to a 384-well place. Absorbances were read at 540 nm using a Biotek H1 Synergy Hybrid Reader (Wanooski, Vt.). Experiments were performed in triplicate and the reported MHC represents an average of three experiments.
Percent hemolysis was determined according to the following equation:
[formula] […]

Consider `C[C@@H]1[C@H](O)[C@@H](C)/C=C/C=C/C=C/C=C/C=C/C=C/C=C/[C@H](O[C@H]2C[C@@H](N)[C@H](O)[C@@H](C)O2)C[C@@H]2O[C@](O)(C[C@@H](O)C[C@@H](O)[C@H](O)CC[C@@H](O)C[C@@H](O)CC(=O)O[C@H]1C)C[C@H](O)[C@H]2C(=O)O` [C2′deOAmB], for which the “Visual evidence of toxicity in microscope images of renal cells” value in the data set on renal cells is given as “no visual evidence of toxicity”. Also, in data set [1] (up to limits of solubility), the “Toxicity to primary human renal proximal tubule epithelial cells (in words)” value is listed as “no evidence of toxicity up to their limits of solubility”. Besides, in data set [2], the “Binding to cholesterol (in words)” value is “do not bind cholesterol”.
`C[C@@H]1[C@H](O)[C@@H](C)/C=C/C=C/C=C/C=C/C=C/C=C/C=C/[C@H](O[C@@H]2O[C@H](C)[C@@H](O)[C@H](N)[C@@H]2O)C[C@@H]2O[C@](O)(C[C@@H](O)C[C@@H](O)[C@H](O)CC[C@@H](O)C[C@@H](O)CC(=O)O[C@H]1C)C[C@H](O)[C@H]2C(=O)O` [AmB, amphotericin B]: the “Binding to ergosterol (in words)” value in data set [3] was “significant increase in net exotherm”. Besides, the “MTC (minimum toxic concentration)” value in data set [1] (concentration causing 90% loss of cell viability, primary human RPTECs, 24 hours) was 2.4 µM. Moreover, in the data set on healthy mice, the Lethality result is on record as “died within seconds”. In addition, the “MHC (minimum hemolytic concentration)” value in the data set with human red blood cells turned out to be 8.5 µM.
For the molecule `COC(=O)[C@H]1[C@@H]2C[C@@H](O[C@@H]3O[C@H](C)[C@@H](O)[C@H](N)[C@H]3O)/C=C/C=C/C=C/C=C/C=C/C=C/C=C/[C@H](C)[C@@H](O)[C@@H](C)[C@H](C)OC(=O)C[C@H](O)C[C@H](O)CC[C@@H](O)[C@H](O)C[C@H](O)C[C@](O)(C[C@@H]1O)O2` [C2′epiAmE, C2′epiAmB methyl ester], the “Potency in yeast MIC assays compared to AmB” value in the data set with yeast [4] was “equipotent to AmB”. Also, the “Efflux of potassium ions” value in [5] is on record as “caused efflux of potassium ions”.
For `C[C@@H]1[C@H](O)[C@@H](C)C=CC=CC=CC=CC=CC=CC=C[C@H](O)C[C@@H]2O[C@](O)(C[C@@H](O)C[C@@H](O)[C@H](O)CC[C@@H](O)C[C@@H](O)CC(=O)O[C@H]1C)C[C@H](O)[C@H]2C(=O)O` [AmdeB, amphoteronolide B], the “Visual evidence of toxicity in microscope images of renal cells” value in the data set on renal cells is listed as “no visual evidence of toxicity”. In the data set on yeast [6], the “Toxicity to yeast (previous work)” value is recorded as “non-toxic to yeast”. Also, the “Capacity to bind ergosterol (previous work)” value in data set [7] was “eliminates its capacity to bind both ergosterol and cholesterol”. The “Capacity to bind cholesterol (previous work)” value in data set [8] is “eliminates its capacity to bind both ergosterol and cholesterol”.
